This test concerns the target T1, HDAC6 enzyme (Homo sapiens, UniProt Q9UBN7).
T1 construct: prepared by transducing full length HDAC6 gene into Sf-9 insect cells; GST; purchased SignalChem; host or cells: Sf-9 insect cells
T1 sequence (Q9UBN7 1-1215): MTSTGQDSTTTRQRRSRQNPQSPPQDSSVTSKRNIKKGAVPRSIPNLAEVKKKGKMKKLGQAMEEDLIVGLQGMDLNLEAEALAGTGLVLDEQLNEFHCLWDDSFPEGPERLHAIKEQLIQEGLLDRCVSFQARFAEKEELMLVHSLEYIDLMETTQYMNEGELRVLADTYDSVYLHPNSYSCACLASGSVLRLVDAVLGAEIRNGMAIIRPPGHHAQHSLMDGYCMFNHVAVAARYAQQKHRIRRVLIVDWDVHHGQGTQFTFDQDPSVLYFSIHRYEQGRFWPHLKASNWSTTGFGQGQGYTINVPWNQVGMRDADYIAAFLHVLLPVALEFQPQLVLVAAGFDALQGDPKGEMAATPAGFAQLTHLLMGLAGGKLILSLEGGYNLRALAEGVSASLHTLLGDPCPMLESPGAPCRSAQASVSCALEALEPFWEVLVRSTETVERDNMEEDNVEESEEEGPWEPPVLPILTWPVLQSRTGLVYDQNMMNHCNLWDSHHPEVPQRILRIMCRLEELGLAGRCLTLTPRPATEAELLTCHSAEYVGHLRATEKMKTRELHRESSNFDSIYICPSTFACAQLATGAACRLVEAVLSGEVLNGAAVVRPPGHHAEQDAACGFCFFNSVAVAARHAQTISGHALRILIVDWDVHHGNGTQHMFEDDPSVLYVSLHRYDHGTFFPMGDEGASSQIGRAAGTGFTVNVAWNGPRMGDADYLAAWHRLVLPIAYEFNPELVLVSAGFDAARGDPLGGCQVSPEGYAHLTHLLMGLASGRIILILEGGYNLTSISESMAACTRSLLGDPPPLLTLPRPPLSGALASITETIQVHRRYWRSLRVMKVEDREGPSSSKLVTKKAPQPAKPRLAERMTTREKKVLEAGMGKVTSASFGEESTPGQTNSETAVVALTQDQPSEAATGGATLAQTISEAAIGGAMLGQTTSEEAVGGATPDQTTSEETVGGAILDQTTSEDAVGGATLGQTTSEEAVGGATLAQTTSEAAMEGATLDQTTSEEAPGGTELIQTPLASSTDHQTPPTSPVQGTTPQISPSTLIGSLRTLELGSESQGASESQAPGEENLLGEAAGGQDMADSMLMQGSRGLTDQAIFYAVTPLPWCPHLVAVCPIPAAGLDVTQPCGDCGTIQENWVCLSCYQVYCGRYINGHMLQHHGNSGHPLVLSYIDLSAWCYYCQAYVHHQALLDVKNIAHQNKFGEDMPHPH
Description: HDAC6 enzyme inhibitory assay (HDAC-Glo I/II Assay kit, luminescence). It is filed as biochemical. The note with it: 10 μM test compound; wells without enzyme = 100% inhibition; read-out: HDAC6 inhibitory rate (%) (10 μM). A digest of the protocol:
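Full-length human HDAC6, GST-purified from Sf-9 cells, was preincubated with compound for 60 min at room temperature in Tris-HCl pH 7.5 buffer with glutathione and Tween-20. Substrate-developer was then added, and luminescence was read after 20 min at room temperature. Inhibition was expressed relative to no-enzyme wells, taken as 100% inhibition.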

These results are taken from patent US12084436B2, “Heterocyclic compound” (Takeda Pharmaceutical Company Limited, priority 2019, dated 2024).

Consider `Cc1cc(Cn2ccnc2-c2cc(F)cc(-c3nnc(C(F)F)o3)c2)n(C)n1` [Example 64a, 2-(difluoromethyl)-5-(3-{1-[(1,3-dimethyl-1H-pyrazol-5-yl)methyl]-1H-imidazol-2-yl}-5-fluorophenyl)-1,3,4-oxadiazole], for which the inhibition at 10 µM was 98%.

Take `CN(CC1CC(F)(F)C1)N1Cc2ccc(-c3nnc(C(F)F)o3)cc2C1=O` [Example 64c, 2-{[(3,3-difluorocyclobutyl)methyl] (methyl)amino}-6-[5-(difluoromethyl)-1,3,4-oxadiazol-2-yl]-2,3-dihydro-1H-isoindol-1-one]: the inhibition at 10 µM was 99%.

Consider `Cc1nc(Cn2ccnc2-c2cc(F)cc(-c3nnc(C(F)F)o3)c2)sc1C` [Example 65a, 2-(difluoromethyl)-5-(3-{1-[(4,5-dimethyl-1,3-thiazol-2-yl)methyl]-1H-imidazol-2-yl}-5-fluorophenyl)-1,3,4-oxadiazole], for which the inhibition at 10 µM came out at 100%.

Take `CN(Cc1ccccc1C(F)F)N1Cc2ccc(-c3nnc(C(F)F)o3)cc2C1=O` [Example 65c, 6-[5-(difluoromethyl)-1,3,4-oxadiazol-2-yl]-2-[{[2-(difluoromethyl)phenyl]methyl} (methyl)amino]-2,3-dihydro-1H-isoindol-1-one]: the inhibition at 10 µM was 101%.

As for `N#Cc1ccc(Cn2ccnc2-c2cc(F)cc(-c3nnc(C(F)F)o3)c2)cn1` [Example 66a, 5-[(2-{3-[5-(difluoromethyl)-1,3,4-oxadiazol-2-yl]-5-fluorophenyl]-1H-imidazol-1-yl)methyl]pyridine-2-carbonitrile], the inhibition at 10 µM was 98%.

Take `CN(C1CC1)N1Cc2ccc(-c3nnc(C(F)F)o3)cc2C1=O` [Example 66c, 2-[cyclopropyl(methyl)amino]-6-[5-(difluoromethyl)-1,3,4-oxadiazol-2-yl]-2,3-dihydro-1H-isoindol-1-one]: the inhibition at 10 µM was 94%.

On to `Fc1cc(-c2nnc(C(F)F)o2)cc(-c2nccn2Cc2cccc(C(F)(F)F)c2)c1` [Example 67a], for which the inhibition at 10 µM amounted to 99%.

On to `Fc1cc(-c2nnc(C(F)F)o2)cc(-c2nccn2Cc2ccc(F)c(Cl)c2)c1` [Example 68a, 2-(3-{1-[(3-chloro-4-fluorophenyl)methyl]-1H-imidazol-2-yl]-5-fluorophenyl)-5-(difluoromethyl)-1,3,4-oxadiazole], for which the inhibition at 10 µM worked out at 99%.

Regarding `CN(C(=O)OC(C)(C)C)N1Cc2ncc(-c3nnc(C(F)F)o3)cc2C1=O` [Example 68c, tert-butyl {3-[5-(difluoromethyl)-1,3,4-oxadiazol-2-yl]-5-oxo-5,7-dihydro-6H-pyrrolo[3,4-b]pyridin-6-yl}methylcarbamate], the inhibition at 10 µM was 99%.

Take `CN(Cc1ccc(F)cc1)N1Cc2ncc(-c3nnc(C(F)F)o3)cc2C1=O` [Example 69c, 3-[5-(difluoromethyl)-1,3,4-oxadiazol-2-yl]-6-{[(4-fluorophenyl)methyl](methyl)amino}-6,7-dihydro-5H-pyrrolo[3,4-b]pyridin-5-one]: the inhibition at 10 µM worked out at 100%.

For `FC(F)c1nnc(-c2cccc(-c3nccn3Cc3ccccc3)c2)o1` [Example 70a, 2-[3-(1-benzyl-1H-imidazol-2-yl)phenyl]-5-(difluoromethyl)-1,3,4-oxadiazole], the inhibition at 10 µM was 98%.

Turning to `CN(Cc1cncc(Cl)c1)N1Cc2ncc(-c3nnc(C(F)F)o3)cc2C1=O` [Example 70c, 6-{[(5-chloropyridin-3-yl)methyl](methyl)amino}-3-[5-(difluoromethyl)-1,3,4-oxadiazol-2-yl]-6,7-dihydro-5H-pyrrolo[3,4-b]pyridin-5-one], the inhibition at 10 µM came out at 100%.

Regarding `Fc1cccc(Cn2ccnc2-c2cc(-c3nnc(C(F)F)o3)ccn2)c1` [Example 71a, 4-[5-(difluoromethyl)-1,3,4-oxadiazol-2-yl]-2-{1-[(3-fluorophenyl)methyl]-1H-imidazol-2-yl}pyridine], the inhibition at 10 µM was 100%.

As to `O=C1c2cc(-c3nnc(C(F)F)o3)cnc2CN1N(Cc1ccc(F)cc1)CC1CCOCC1` [Example 71c, 3-[5-(difluoromethyl)-1,3,4-oxadiazol-2-yl]-6-{[(4-fluorophenyl)methyl][(oxan-4-yl)methyl]amino}-6,7-dihydro-5H-pyrrolo[3,4-b]pyridin-5-one], the inhibition at 10 µM amounted to 100%.

Regarding `N#Cc1cccc(Cn2ccnc2-c2cc(-c3nnc(C(F)F)o3)ccn2)c1` [Example 72a, 3-[(2-{4-[5-(difluoromethyl)-1,3,4-oxadiazol-2-yl]pyridin-2-yl}-1H-imidazol-1-yl)methyl]benzonitrile], the inhibition at 10 µM stood at 100%.

On to `Fc1ccc(Cc2ccnn2-c2cc(-c3nnc(C(F)F)o3)ccn2)cc1` [Example 73a, 4-[5-(difluoromethyl)-1,3,4-oxadiazol-2-yl]-2-[5-[(4-fluorophenyl)methyl]-1H-pyrazol-1-yl}pyridine], for which the inhibition at 10 µM was 100%.

For `Fc1cccc(Cn2c(Br)cnc2-c2cc(-c3nnc(C(F)F)o3)ccn2)c1` [Example 74a, 2-{5-bromo-1-[(3-fluorophenyl)methyl]-1H-imidazol-2-yl}-4-[5-(difluoromethyl)-1,3,4-oxadiazol-2-yl]pyridine], the inhibition at 10 µM came to 99%.

Consider `N#Cc1ccc(Cn2ccnc2-c2cc(-c3nnc(C(F)F)o3)ccn2)cc1F` [Example 75a, 4-[(2-{4-[5-(difluoromethyl)-1,3,4-oxadiazol-2-yl]pyridin-2-yl}-1H-imidazol-1-yl)methyl]-2-fluorobenzonitrile], for which the inhibition at 10 µM worked out at 99%.

`Fc1ccc(Cn2ccnc2-c2cc(-c3nnc(C(F)F)o3)ccn2)nc1` [Example 76a, 4-[5-(difluoromethyl)-1,3,4-oxadiazol-2-yl]-2-{1-[(5-fluoropyridin-2-yl)methyl]-1H-imidazol-2-yl}pyridine]: the inhibition at 10 µM worked out at 100%.

Consider `FC(F)c1nnc(-c2ccnc(-n3ncc4c3C(c3ccccc3)CCC4)c2)o1` (stereo not shown) [Example 77a], for which the inhibition at 10 µM turned out to be 99%.

Take `Cc1ccc(Cn2ccnc2-c2cc(-c3nnc(C(F)F)o3)ccn2)cc1` [Example 78a]: the inhibition at 10 µM came to 103%.

As for `N#Cc1ccccc1Cn1ccnc1-c1cc(-c2nnc(C(F)F)o2)ccn1` [Example 79a], the inhibition at 10 µM was determined as 99%.

`COc1ccc(Cn2ccnc2-c2cc(-c3nnc(C(F)F)o3)ccn2)cc1` [Example 80a, 4-[5-(difluoromethyl)-1,3,4-oxadiazol-2-yl]-2-{1-[(4-methoxyphenyl)methyl]-1H-imidazol-2-yl}pyridine]: the inhibition at 10 µM is 104%.

`COc1cccc(Cn2ccnc2-c2cc(-c3nnc(C(F)F)o3)ccn2)c1` [Example 81a, 4-[5-(difluoromethyl)-1,3,4-oxadiazol-2-yl]-2-{1-[(3-methoxyphenyl)methyl]-1H-imidazol-2-yl}pyridine]: the inhibition at 10 µM was 101%.

Regarding `N#Cc1cnc(-c2cc(-c3nnc(C(F)F)o3)ccn2)n1Cc1cccc(F)c1` [Example 82a, 2-{4-[5-(difluoromethyl)-1,3,4-oxadiazol-2-yl]pyridin-2-yl}-1-[(3-fluorophenyl)methyl]-1H-imidazole-5-carbonitrile], the inhibition at 10 µM amounted to 99%.

In the case of `Cc1cccc(Cn2ccnc2-c2cc(-c3nnc(C(F)F)o3)ccn2)c1` [Example 83a, 4-[5-(difluoromethyl)-1,3,4-oxadiazol-2-yl]-2-{1-[(3-methylphenyl)methyl]-1H-imidazol-2-yl}pyridine], the inhibition at 10 µM was 100%.

For the compound `COc1ccccc1Cn1ccnc1-c1cc(-c2nnc(C(F)F)o2)ccn1` [Example 84a, 4-[5-(difluoromethyl)-1,3,4-oxadiazol-2-yl]-2-{1-[(2-methoxyphenyl)methyl}-1H-imidazol-2-yl}pyridine], the inhibition at 10 µM worked out at 100%.

As to `Fc1cccc(Cn2ncnc2-c2cc(-c3nnc(C(F)F)o3)ccn2)c1` [Example 85a, 4-[5-(difluoromethyl)-1,3,4-oxadiazol-2-yl]-2-{1-[(3-fluorophenyl)methyl]-1H-1,2,4-triazol-5-yl}pyridine], the inhibition at 10 µM turned out to be 101%.
